Data: patent US10065967B2, “Compounds that are ERK inhibitors” (Merck Sharp & Dohme Corp., priority 2013, dated 2018)
Where a name gives a salt, the structure may show the parent alone.

Target: Active Human ERK2 (hERK2) (Homo sapiens (Human), UniProt P28482)
Assay: Active Human ERK2 (hERK2) Activity Assay (IMAP-FP)
Type: biochemical
Settings: phosphorylated active hERK2 0.5 nM, 30 μM ATP, 10 point titration, read-out: ERK 2 Human average IC50
Procedure: Assays Active Human ERK2 (hERK2) Activity Assay:
Activated ERK2 activity was determined in an IMAP-FP assay (Molecular Devices). Using this assay format, the potency (IC50) of each compound was determined from a 10 point (1:3 serial dilution, 3 μM starting compound concentration) titration curve using the following outlined procedure. […] Following a 15 minute compound & enzyme incubation, each reaction was initiated by the addition of 10 μL kinase buffer containing 2.45 μM ERK2 IMAP substrate peptides (2.25 μM-unlabeled peptide and 200 nM-labeled peptide, and 75 μM ATP. The final reaction in each well of 25 μL consists of 0.5 nM hERK2, 900 nM unlabeled peptide, 80 nM labeled-peptide, and 30 μM ATP. Phosphorylation reactions were allowed to proceed for 60 minutes and were immediately quenched by the addition of 60 μL IMAP detection beads (1:1000 dilutions) in IMAP binding buffer (Molecular Devices) with 24 mM NaCl. Plates were read on EnVision reader after 60 minutes binding equilibration using Fluorescence Polarization protocol (Perkin Elmer).

Sequence of Active Human ERK2 (hERK2) (P28482 whole entry): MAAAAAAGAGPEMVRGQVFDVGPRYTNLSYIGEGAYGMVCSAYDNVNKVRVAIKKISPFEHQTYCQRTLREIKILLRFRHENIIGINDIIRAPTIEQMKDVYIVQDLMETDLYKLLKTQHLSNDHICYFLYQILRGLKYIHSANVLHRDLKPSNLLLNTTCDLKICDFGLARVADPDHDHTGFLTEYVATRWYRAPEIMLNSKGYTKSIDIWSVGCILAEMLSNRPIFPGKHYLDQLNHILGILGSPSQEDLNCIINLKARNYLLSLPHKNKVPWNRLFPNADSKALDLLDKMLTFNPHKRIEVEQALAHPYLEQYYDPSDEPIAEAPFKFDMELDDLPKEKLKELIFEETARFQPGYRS

SMILES	IC50
Cc1cc(-c2n[nH]c3cc4c(cc23)CNC(=O)N4)ccn1 [Example 13, 3-(2-methylpyridin-4-yl)-5,6-dihydro-1H-pyrazolo[4,3-g]quinazolin-7(8H)-one]	0.6 nM
Cc1cc(-c2n[nH]c3cc4c(cc23)CCN(Cc2ccc(F)cc2)C(=O)N4O)ccn1 [Example 11, 7-(4-fluorobenzyl)-9-hydroxy-3-(2-methylpyridin-4-yl)-5,6,7,9-tetrahydro-[1,3]diazepino[5,4-f]indazol-8(1H)-one]	459 nM
Cc1cc(-c2n[nH]c3cc4c(cc23)CCN([C@H](C)c2ccc(F)cc2)C(=O)N4)ccn1 [Example 12, (R)-7-(1-(4-fluorophenyl)ethyl)-3-(2-methylpyridin-4-yl)-5,6,7,9-tetrahydro-[1,3]diazepino[5,4-f]indazol-8(1H)-one]	72 nM
Cn1cc(-c2n[nH]c3cc4[nH]c(=O)c(Br)cc4cc23)cn1 [Example 6, 6-bromo-3-(1-methyl-1H-pyrazol-4-yl)-1,8-dihydro-7H-pyrazolo[4,3-g]quinolin-7-one trifluoroacetate]	0.3 nM
Cc1cc(-c2n[nH]c3cc4c(cc23)CN(C2CCCOc3ccccc32)C(=O)N4)ccn1 (stereo not shown) [Example 16, 3-(2-methylpyridin-4-yl)-6-(2,3,4,5-tetrahydrobenzo[b]oxepin-5-yl)-5,6-dihydro-1H-pyrazolo[4,3-g]quinazolin-7(8H)-one]	4.8 nM
Cc1cc(-c2n[nH]c3cc4c(cc23)CCCC(=O)N4)ccn1 [Example 9, 3-(2-methylpyridin-4-yl)-5,6,7,9-tetrahydroazepino[3,2-f]indazol-8(1H)-one]	252 nM
COC[C@H](c1ccc(F)cc1)N1Cc2cc3c(-c4ccnc(C)c4)n[nH]c3cc2NC1=O [Example 17]	0.7 nM
C[C@H](c1ccccc1)N1Cc2cc3c(-c4ccc(C#N)nc4)n[nH]c3cc2NC1=O [Example 27, (R)-5-(7-oxo-6-(1-phenylethyl)-5,6,7,8-tetrahydro-1H-pyrazolo[4,3-g]quinazolin-3-yl)picolinonitrile]	10 nM
Cc1cc(-c2n[nH]c3cc4c(cc23)CN(Cc2ccccc2)C(=O)N4)ccn1 [Example 14, 6-benzyl-3-(2-methylpyridin-4-yl)-5,6-dihydro-1H-pyrazolo[4,3-g]quinazolin-7(8H)-one]	0.5 nM
Cn1cc(-c2n[nH]c3cc4[nH]c(=O)ccc4cc23)cn1 [Example 4, 3-(1-methyl-1H-pyrazol-4-yl)-1,8-dihydro-7H-pyrazolo[4,3-g]quinolin-7-one]	0.3 nM
Cc1cc(-c2n[nH]c3cc4c(cc23)CN([C@H](C)c2ccccc2)C(=O)N4)ccn1 [Example 20, (R)-3-(2-methylpyridin-4-yl)-6-(1-phenylethyl)-5,6-dihydro-1H-pyrazolo[4,3-g]quinazolin-7(8H)-one 2,2,2-trifluoroacetate]	0.3 nM
Cc1cc(-c2n[nH]c3cc4[nH]c(=O)n([C@H](C)c5ccccc5)c(=O)c4cc23)ccn1 [Example 23, (R)-3-(2-methylpyridin-4-yl)-6-(1-phenylethyl)-1H-pyrazolo[4,3-g]quinazoline-5,7(6H,8H)-dione]	3.7 nM
Cc1cc(-c2n[nH]c3cc4c(cc23)CN([C@H](C)c2ccc(F)cc2)C(=O)N4)ccn1 [Example 10, (R)-6-(1-(4-fluorophenyl)ethyl)-3-(2-methylpyridin-4-yl)-5,6-dihydro-1H-pyrazolo[4,3-g]quinazolin-7(8H)-one]	0.3 nM
Cc1cc(-c2n[nH]c3cc4c(cc23)CN(Cc2cccc(C)n2)C(=O)N4)ccn1 [Example 21, 6-((6-methylpyridin-2-yl)methyl)-3-(2-methylpyridin-4-yl)-5,6-dihydro-1H-pyrazolo[4,3-g]quinazolin-7(8H)-one]	0.6 nM
O=c1ccc2cc3cn[nH]c3cc2[nH]1 [Example 5, 1,8-dihydro-7H-pyrazolo[4,3-g]quinolin-7-one]	228 nM
COc1ncc(-c2n[nH]c3cc4c(cc23)CN([C@H](C)c2ccccc2)C(=O)N4)cn1 [Example 28, (R)-3-(2-methoxypyrimidin-5-yl)-6-(1-phenylethyl)-5,6-dihydro-1H-pyrazolo[4,3-g]quinazolin-7(8H)-one formate]	0.6 nM
COc1ccccc1CN1Cc2cc3c(-c4ccnc(C)c4)n[nH]c3cc2NC1=O [Example 18, 6-(2-methoxybenzyl)-3-(2-methylpyridin-4-yl)-5,6-dihydro-1H-pyrazolo[4,3-g]quinazolin-7(8H)-one]	0.8 nM
COc1ccccc1CCN1Cc2cc3c(-c4ccnc(C)c4)n[nH]c3cc2NC1=O [Example 19, 6-(2-methoxyphenethyl)-3-(2-methylpyridin-4-yl)-5,6-dihydro-1H-pyrazolo[4,3-g]quinazolin-7(8H)-one]	2.3 nM
Cn1cc(-c2n[nH]c3cc4[nH]c(=O)c(Cc5ccccc5)cc4cc23)cn1 [Example 7, 6-benzyl-3-(1-methyl-1H-pyrazol-4-yl)-1,8-dihydro-7H-pyrazolo[4,3-g]quinolin-7-one]	0.3 nM

Results, then the compound that gave them:

IC50	SMILES
24 nM	C[C@H](c1ccccc1)N1Cc2cc3c(C4CC4)n[nH]c3cc2NC1=O [Example 40, (R)-3-cyclopropyl-6-(1-phenylethyl)-5,6-dihydro-1H-pyrazolo[4,3-g]quinazolin-7(8H)-one]
6.4 nM	COCCOc1n[nH]c2cc3c(cc12)CN([C@H](C)c1ccccc1)C(=O)N3 [Example 36, (R)-3-(2-methoxyethoxy)-6-(1-phenylethyl)-5,6-dihydro-1H-pyrazolo[4,3-g]quinazolin-7(8H)-one]
2.3 nM	CC(=O)Nc1n[nH]c2cc3c(cc12)CN([C@H](C)c1ccccc1)C(=O)N3 [Example 34, (R)-N-(7-oxo-6-(1-phenylethyl)-5,6,7,8-tetrahydro-1H-pyrazolo[4,3-g]quinazolin-3-yl)acetamide]
48 nM	C[C@H](c1ccccc1)N1Cc2cc3c(I)n[nH]c3cc2NC1=O [Example 43, (R)-3-iodo-6-(1-phenylethyl)-5,6-dihydro-1H-pyrazolo[4,3-g]quinazolin-7(8H)-one]
20 nM	C[C@H](c1ccccc1)N1Cc2cc3c(OCCO)n[nH]c3cc2NC1=O [Example 37, (R)-3-(2-hydroxyethoxy)-6-(1-phenylethyl)-5,6-dihydro-1H-pyrazolo[4,3-g]quinazolin-7(8H)-one]
24 nM	C[C@H](c1ccccc1)N1Cc2cc3c(N4CCc5ncsc5C4)n[nH]c3cc2NC1=O [Example 47, (R)-3-(6,7-dihydrothiazolo[5,4-c]pyridin-5(4H)-yl)-6-(1-phenylethyl)-5,6-dihydro-1H-pyrazolo[4,3-g]quinazolin-7(8H)-one]
21 nM	C[C@H](c1ccccc1)N1Cc2cc3c(OC4CCOC4)n[nH]c3cc2NC1=O (stereo partly drawn) [Example 38, 6-((R)-1-phenylethyl)-3-((tetrahydrofuran-3-yl)oxy)-5,6-dihydro-1H-pyrazolo[4,3-g]quinazolin-7(8H)-one]
0.3 nM	C[C@H](c1ccccc1)N1Cc2cc3c(-c4ccnc(F)c4)n[nH]c3cc2NC1=O [Example 41, (R)-3-(2-fluoropyridin-4-yl)-6-(1-phenylethyl)-5,6-dihydro-1H-pyrazolo[4,3-g]quinazolin-7(8H)-one]
114 nM	COc1n[nH]c2cc3c(cc12)CN([C@H](C)c1ccccc1)C(=O)N3 [Example 35, (R)-3-methoxy-6-(1-phenylethyl)-5,6-dihydro-1H-pyrazolo[4,3-g]quinazolin-7(8H)-one]
